Measurements reported in patent publication US20070086956A1, “Method for accelerating the rate of mucociliary clearance” (BAYER AKTIENGESELLSCHAFT, priority 1998, published 2007).
pKi: −log10 of the molar value. Like-named read-outs stand apart in the source and are kept apart here.

What was measured:
[1] = biological target: T1, human neutrophil elastase (Homo sapiens, UniProt P08246); test: Inhibition of human neutrophil elastase, Ki (Dixon plots); type: biochemical; conditions: Table 3; Human Neutrophil Elastase (19 nM)
T1 sequence (P08246 30-267): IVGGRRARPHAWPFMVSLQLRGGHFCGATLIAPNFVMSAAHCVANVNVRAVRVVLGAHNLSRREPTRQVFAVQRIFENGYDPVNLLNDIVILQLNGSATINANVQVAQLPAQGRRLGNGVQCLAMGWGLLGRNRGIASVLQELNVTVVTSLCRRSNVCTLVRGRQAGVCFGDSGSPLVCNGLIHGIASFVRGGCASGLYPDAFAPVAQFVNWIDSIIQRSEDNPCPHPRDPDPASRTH
Method: […] Ki values were determined from Dixon plots of the form 1/V versus performed at two different substrate concentrations (Dixon et al., 1979).

[2] = biological target: T2, human tissue kallikrein (Homo sapiens, UniProt P06870); test: Inhibition of human tissue kallikrein, Ki; type: biochemical; conditions: Table 3; Human Tissue Kallikrein (0.35 nM); PFR-AMC (10 μM)
T2 construct: purchased Bayer, Germany
T2 sequence (P06870 25-262): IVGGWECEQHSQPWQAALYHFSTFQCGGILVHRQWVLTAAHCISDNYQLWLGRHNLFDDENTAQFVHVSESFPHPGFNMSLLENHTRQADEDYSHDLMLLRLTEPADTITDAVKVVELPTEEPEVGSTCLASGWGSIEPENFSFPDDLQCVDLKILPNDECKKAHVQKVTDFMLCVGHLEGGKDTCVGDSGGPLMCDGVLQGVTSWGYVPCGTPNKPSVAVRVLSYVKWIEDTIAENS
Method: After 5 min. at 37° C., 5 ul of 2 mM PFR-AMC was added achieving 10 uM final and the change in fluorescence monitored. The Km for PFR-AMC with human tissue kallikrein under the conditions employed was 5.7 uM.
After 5 min. at 37° C., 5 μl of 2 mM PFR-AMC was added and the change in fluorescence monitored.
After 5 min. at 37° C., 5 ul of 2 mM PFR-AMC was added achieving 10 uM final concentration and the change in fluorescence monitored.

[3] = biological target: T3, human plasmin (Homo sapiens, UniProt P00747); test: Inhibition of human plasmin, Ki; type: biochemical; conditions: Table 3; Human Plasmin (50 pM); GPK-AMC (0.5 mM)
T3 construct: purchased Sigma (St. Louis, Mo.)
T3 sequence (P00747 581-810 limits assumed): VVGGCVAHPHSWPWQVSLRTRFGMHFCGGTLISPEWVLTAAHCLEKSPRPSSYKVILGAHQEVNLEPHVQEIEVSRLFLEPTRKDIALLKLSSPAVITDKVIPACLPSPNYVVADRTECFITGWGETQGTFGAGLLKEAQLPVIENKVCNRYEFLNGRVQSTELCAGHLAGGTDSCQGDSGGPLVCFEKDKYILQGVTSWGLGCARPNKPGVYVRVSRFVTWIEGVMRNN
T3 sequence (P00747 97-580 partner limits assumed): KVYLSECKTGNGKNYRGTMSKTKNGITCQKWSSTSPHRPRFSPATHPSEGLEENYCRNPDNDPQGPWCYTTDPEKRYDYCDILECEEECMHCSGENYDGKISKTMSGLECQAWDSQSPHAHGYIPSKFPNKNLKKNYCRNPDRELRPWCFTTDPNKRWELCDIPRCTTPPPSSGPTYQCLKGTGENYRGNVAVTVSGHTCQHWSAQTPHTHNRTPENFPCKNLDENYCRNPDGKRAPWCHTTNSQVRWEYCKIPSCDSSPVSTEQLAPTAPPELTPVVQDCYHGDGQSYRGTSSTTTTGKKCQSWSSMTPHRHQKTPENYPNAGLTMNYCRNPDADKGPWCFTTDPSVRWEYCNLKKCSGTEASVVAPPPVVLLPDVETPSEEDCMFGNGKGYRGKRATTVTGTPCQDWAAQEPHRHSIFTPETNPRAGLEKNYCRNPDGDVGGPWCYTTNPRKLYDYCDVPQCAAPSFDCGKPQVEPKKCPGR
Method: (§1) After 5 min. at 37° C., 15 μl of 2 mM GPK-AMC was added and the change in fluorescence (as above) was monitored. […] After 5 min. incubation at 37° C., 25 μl of 20 mM GPK-AMC was added and the change in fluorescence monitored. […] After 5 min. at 37° C. 15 μl of 20 mM PFR-AMC was added and the change in fluorescence monitored.
(§2) After 30 min. incubation at 37° C., 25 μl of 20 mM GPK-AMC was added and the change in fluorescence monitored. […] After 30 min. at 37° C., 5 μl of 20 mM PFR-AMC was added and the change in fluorescence monitored.

[4] = biological target: T4, human factor Xa (Homo sapiens, UniProt P00742); test: Inhibition of human factor Xa; type: biochemical; conditions: Table 3; factor Xa (0.87 nM); LGR-AMC (0.6 mM)
T4 construct: purchased American Diagnostica, Inc, Greenwich, Conn
T4 sequence (P00742 235-488 limits assumed): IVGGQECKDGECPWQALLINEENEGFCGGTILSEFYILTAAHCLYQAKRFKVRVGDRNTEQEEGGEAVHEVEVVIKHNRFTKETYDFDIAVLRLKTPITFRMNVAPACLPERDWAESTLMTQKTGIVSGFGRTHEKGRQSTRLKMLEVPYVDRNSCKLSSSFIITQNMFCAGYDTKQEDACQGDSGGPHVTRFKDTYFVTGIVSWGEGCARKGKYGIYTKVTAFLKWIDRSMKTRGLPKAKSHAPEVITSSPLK
T4 sequence (P00742 41-179 partner limits assumed): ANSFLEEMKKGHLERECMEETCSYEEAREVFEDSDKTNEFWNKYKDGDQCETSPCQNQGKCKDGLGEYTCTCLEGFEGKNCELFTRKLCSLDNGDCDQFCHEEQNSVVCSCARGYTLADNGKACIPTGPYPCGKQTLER
Method: (§3) After 5 min. at 37° C., 30 ul of 20 mM LGR-AMC (Sigma) was added and the change in fluorescence monitored. […] After 5 min. at 37° C., 35 ul of 20 mM GGR-AMC (Sigma) was added and the change in fluorescence monitored.

[5] = biological target: T5, human urokinase (Homo sapiens, UniProt P00749); test: Inhibition of human urokinase, Ki; type: biochemical; conditions: Table 3, GGR-AMC (0.7 mM)
T5 construct: purchased Sigma
Method: as §3

[6] = biological target: T6, human plasma kallikrein (Homo sapiens, UniProt P03952); test: Inhibition of human plasma kallikrein, Ki; type: biochemical; conditions: for pKi: Human Plasma Kallikrein (2.5 nM)
T6 construct: purchased Sigma (St. Louis, Mo.)
T6 sequence (P03952 391-638 limits assumed): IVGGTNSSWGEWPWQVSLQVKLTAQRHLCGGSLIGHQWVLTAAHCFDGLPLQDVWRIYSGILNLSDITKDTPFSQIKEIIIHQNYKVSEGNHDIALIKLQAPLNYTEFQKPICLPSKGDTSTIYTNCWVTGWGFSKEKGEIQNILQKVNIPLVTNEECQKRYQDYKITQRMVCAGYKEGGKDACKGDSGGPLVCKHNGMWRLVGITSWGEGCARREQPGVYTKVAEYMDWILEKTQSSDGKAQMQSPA
T6 sequence (P03952 20-390 partner limits assumed): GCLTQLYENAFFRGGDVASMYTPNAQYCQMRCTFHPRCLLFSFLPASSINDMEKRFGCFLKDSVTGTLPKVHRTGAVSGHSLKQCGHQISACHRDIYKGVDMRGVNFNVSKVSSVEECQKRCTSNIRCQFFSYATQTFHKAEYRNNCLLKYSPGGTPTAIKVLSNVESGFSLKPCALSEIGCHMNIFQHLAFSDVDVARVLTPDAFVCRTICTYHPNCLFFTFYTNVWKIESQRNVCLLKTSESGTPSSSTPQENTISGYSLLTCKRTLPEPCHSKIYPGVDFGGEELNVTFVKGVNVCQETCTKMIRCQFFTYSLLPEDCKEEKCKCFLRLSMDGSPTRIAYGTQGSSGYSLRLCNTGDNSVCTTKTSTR
Method: as §1, §2

[7] = biological target: Bovine chymotrypsin (Bos taurus, UniProt P00766); test: Inhibition of chymotrypsin, Ki; type: biochemical
[8] = system: human CF bronchial epithelial cells; test: Short circuit current (Isc) in cultured human cystic fibrosis bronchial epithelial cells; type: cell-based
Method: HBE cells were isolated from CF patient lung transplant tissue and grown in collagen coated flasks for one week. The cells were then passaged and seeded onto collagen coated Costar Transwell filters (0.33 cm2) and grown in DMEM/F12 media supplemented with 2% Ultroser G. Cells were grown at an air liquid interface and used 2 to 4 weeks after seeding:
Cells on the Transwell filters were mounted in modified Costar Ussing chambers and studied under Isc conditions. […] Isc was recorded for 100 minutes and then the apical bath fluid was exchanged with fresh buffer. Trypsin (100 BAEE units/mL) was added to the apical side and Isc recorded for 10 minutes. Amiloride (10 uM) was then added to the apical side and Isc was recorded for a further 10 minutes.
HBE cells were isolated from CF patient lung transplant tissue and grown in collagen coated flasks for one week. The cells were then passaged and seeded onto collagen coated Costar Transwell filters (0.33 cm^2) and grown in DMEM/F12 media supplemented with 2% Ultroser G. Cells were grown at an air liquid interface and used 2 to 4 weeks after seeding.
Cells on the Transwell filters were mounted in modified Costar Ussing chambers and studied under Isc conditions. […] Isc was recorded for 90 minutes and then amiloride (10 uM) was added and Isc was recorded for a further 10 minutes. The apical bath fluid was then exchanged with fresh buffer, and Isc was recorded for a further 15 minutes. Trypsin (1 uM) was added to the apical side and Isc recorded for 15 minutes. Amiloride (10 uM) was then added to the apical side and Isc was recorded for a further 10 minutes.

[9] = system: diseased patients; conditions: inhalation; diseased patients (Robinson et al 1997; App et al 1990); cited from earlier work
[10] = system: guinea pig trachea; test: Tracheal mucus velocity (TMV) in the guinea-pig; type: in vivo
Method: The aim of this study was to investigate the effect of the Kunitz family serine protease inhibitor Bikunin on guinea-pig tracheal mucus velocity 1.5 hours post treatment. This agent was delivered into the cephalad trachea by topical instillation. TMV was monitored 1.5 hours later for 60 mins. The procedure used in this Example is described in Newton et al. in “Cila, Mucus and Mucociliary Interactions,” Ed., Baum, G. L. et al., Marcel Dekker, New York, 1998; Newton et al., Ped. Pulm. S17, Abs. 364, 1998). […]
TMV was monitored using a lead collimated miniature Beta particle detector probe arranged to detect the radioactivity emitted from an injected aliquot of ^32P-labelled Saccharomyces cerevisiae as it was transported on the tracheal mucociliary layer of an anaesthetized guinea pig (Newton and Hall 1998) FIG. 16(a) illustrates the arrangement of the syringe and beta probe. FIG. 16(b) illustrates the counts detected by the probe as the ^32P-labelled S. cerevisiae is transported along the tracheal mucociliary layer. […]
The aim of this comparative study was to investigate the effect of hypertonic saline (14.4%×5 min) on guinea-pig tracheal mucus velocity. […] TMV was monitored immediately and every 15 minutes for 30 minutes. […]

[11] = system: guinea pig trachea; conditions: 10 mM, 20 minute aerosol; 15 minutes after; n=8 (Newton et al 1998); cited from earlier work
[12] = system: human bronchial epithelial cell (HBE); test: Short circuit current (Isc) in cultured human bronchial epithelial (HBE) cells, Ussing chamber; type: cell-based; conditions: for sodium current: 0.5 to 5 ug/mL (0.5, 1.5 and 5 ug/mL), 90 minute period
Method: Tertiary HBE cell monolayer grown to confluence were mounted in modified Ussing chambers, immersed in Krebs buffer (KBR) solution and bubbled with 95% O2/5% CO2 warmed to 37 C.
Cells were left to equilibrate for 20 minutes before calibrating for background noise and fluid resistance. Transepithelial potential difference was then clamped to 0 mV using a WPI EVC 4000 voltage clamp. Ag/AgCl electrodes were used to monitor Isc. […] Once a response to amiloride was seen, it was washed out with KBR solution. […] 90 minutes following agent treatment, amiloride (10 uM) was added. Once the current was stable forskolin (10 uM) and then bumetanide (100 uM) was added.
Tertiary HBE cell monolayers grown to confluence were mounted in modified Ussing chambers, immersed in Krebs buffer (KBR) solution and bubbled with 95% O2/5% CO2 warmed to 37 C.
Cells were left to equilibrate for 20 minutes before calibrating for background noise and fluid resistance. Transepithelial potential difference was then clamped to 0 mV using a WPI EVC 4000 voltage clamp. Ag/AgCI electrodes were used to monitor Isc. […] Once a response to amiloride was seen, it was washed out with KBR solution. […] 90 minutes following agent treatment, amiloride (10 uM) was added.

[13] = system: A6 cells; conditions: exposure of the apical membrane (Vallet et al 1997; Chraibi et al 1998), cited from earlier work
[14] = system: allergic sheep; conditions: cited from earlier work

CC[C@H](C)[C@@H]1NC(=O)[C@H](Cc2ccccc2)NC(=O)[C@H](CC(N)=O)NC(=O)[C@H](CC(N)=O)NC(=O)[C@@H]2CSSC[C@@H]3NC(=O)[C@H](C)NC(=O)[C@H](CCC(=O)O)NC(=O)[C@H](CCC(=O)O)NC(=O)[C@H](CO)NC(=O)[C@H](CCCNC(=N)N)NC(=O)[C@H](Cc4ccc(O)cc4)NC(=O)[C@H](CO)NC(=O)[C@H](CC(N)=O)NC(=O)[C@H](CCCCN)NC(=O)[C@H](CC(N)=O)NC(=O)CNC(=O)[C@H](CCCNC(=N)N)NC(=O)[C@H](CSSC[C@H](NC(=O)[C@@H]4CCCN4C(=O)CNC(=O)[C@H]([C@@H](C)O)NC(=O)[C@H](C(C)C)NC(=O)[C@H](C)NC(=O)[C@H](CC(N)=O)NC(=O)[C@H](C)NC(=O)[C@H]([C@@H](C)O)NC(=O)[C@@H](NC(=O)[C@H](Cc4ccc(O)cc4)NC(=O)[C@H](CCC(=O)O)NC(=O)[C@H](CCC(=O)O)NC(=O)[C@@H](N)Cc4ccc(O)cc4)CSSC[C@@H](C(=O)N[C@@H](Cc4ccccc4)C(=O)N[C@@H](CCCNC(=N)N)C(=O)N[C@@H](CCC(N)=O)C(=O)O)NC(=O)[C@H](CCCNC(=N)N)NC(=O)[C@H](CC(C)C)NC(=O)[C@H](CCSC)NC3=O)C(=O)N[C@@H](CCCNC(=N)N)C(=O)N[C@@H](C)C(=O)N[C@@H](CO)C(=O)N[C@@H](Cc3ccccc3)C(=O)N3CCC[C@H]3C(=O)N[C@@H](CCCNC(=N)N)C(=O)N[C@@H](Cc3c[nH]c4ccccc34)C(=O)N[C@@H](Cc3ccc(O)cc3)C(=O)N[C@@H](Cc3ccccc3)C(=O)N[C@@H](CC(=O)O)C(=O)N[C@@H](C(C)C)C(=O)N[C@@H](CCC(=O)O)C(=O)N[C@@H](CCCNC(=N)N)C(=O)N[C@@H](CC(N)=O)C(=O)N[C@@H](CO)C(=O)N2)NC(=O)CNC(=O)CNC(=O)[C@H](Cc2ccc(O)cc2)NC1=O [Bikunin (102-159)]
pKi [1]: 6.49
pKi [2]: 9.89
pKi [3]: 8.74
pKi [4]: 6.56
pKi [5]: 4.96
pKi ([6]; Table 3, PFR-AMC (0.3 mM)): 9.52
pKi ([6]; Table 4A): 9.52
Ki ([6]; Table 4B, Human Plasma Kallikrein ([…] nM)): 0.7 nM
pKi ([7]; Table 3, Chymotrypsin (5 nM), AAPF-pNA (0.08 mM)): 9.62
pKi ([7]; Table 4A, Bovine chymotrypsin (5 nM)): 9.70

N=C(N)NC(=O)c1nc(Cl)c(N)nc1N [amiloride, reference compound]
Isc ([8]; 10 uM, apical, after trypsin): inhibited the majority of the current
MCC [9]: significantly increase MCC
TMV ([10]; 10 mM x 20 mins aerosol, 15 minutes after aerosol, FIG. 19): statistically significant increase in TMV
TMV [11]: 8.1±0.3 mm.min^−1

Aprotinin
Isc ([8]; 20 ug/mL, 90 minutes after apical application): decreases sodium current
Isc ([8]; 20 ug/mL, 90 minutes after apical application, listed as aprotinin): inhibited Isc
Isc ([8]; 1 mg/mL in PBS, over a 100 minute period, FIG. 21): inhibited Isc
sodium short circuit current ([12]; 5 ug/mL, FIG. 20): decrease sodium short circuit current
transepithelial Na+ transport [13]: reduce transepithelial Na^+ transport
transepithelial Na+ transport ([13]; listed as aprotinin): reduced transepithelial Na^+ transport

Des Pro2-Ser10-Arg15-Asp24-Thr26-Glu31-Asn41-Glu53-Aprotinin [Aprotinin double mutein]
sodium current ([12]; FIG. 20): dose dependently inhibited sodium current
sodium current ([12]; FIG. 20, listed as aprotinin double mutein): decrease sodium short circuit current
TMV ([10]; 10 ug, relative to HBSS, 1.5 to 2.5 hours following administration, FIG. 26): increased TMV

α1-PI: serpin-family serine protease inhibitor alpha(1)-protease inhibitor
effect on Na+ Isc ([12]; 50 ug.ml−1, normal HBE cells, further study): without a significant effect
antigen-induced reduction in TMV ([14]; 10 mg given 30 min before or 1 h after antigen challenge, 6 h after challenge): attenuated antigen-induced reduction in TMV
baseline TMV ([14]; administered on its own (no antigen challenge), over a 6 h period): no effect on baseline TMV
antigen-induced fall in TMV ([14]; given 6 h after antigen challenge, at 24 h after challenge): significant reversal of the antigen-induced fall in TMV
